Experiment [1] has as its target Prothrombin (Homo sapiens, UniProt P00734). The format is functional.
For experiment [2], the target named is Mu-type opioid receptor (Homo sapiens, UniProt P35372).
Experiment [3] addresses cGMP-inhibited 3',5'-cyclic phosphodiesterase 3A (Homo sapiens, UniProt Q14432). The experiment is classed as functional.
Experiment [4] deals with 3',5'-cyclic-AMP phosphodiesterase 4A (Homo sapiens, UniProt P27815). The experiment is classed as functional.
Experiment [5] has as its target Prostaglandin G/H synthase 1 (Homo sapiens, UniProt P23219). The format is functional.
Experiment [6] has as its target Sodium-dependent serotonin transporter (Homo sapiens, UniProt P31645).
For experiment [7], the target named is T1, Thromboxane A2 receptor (Homo sapiens, UniProt P21731).
T1 sequence (P21731 whole entry): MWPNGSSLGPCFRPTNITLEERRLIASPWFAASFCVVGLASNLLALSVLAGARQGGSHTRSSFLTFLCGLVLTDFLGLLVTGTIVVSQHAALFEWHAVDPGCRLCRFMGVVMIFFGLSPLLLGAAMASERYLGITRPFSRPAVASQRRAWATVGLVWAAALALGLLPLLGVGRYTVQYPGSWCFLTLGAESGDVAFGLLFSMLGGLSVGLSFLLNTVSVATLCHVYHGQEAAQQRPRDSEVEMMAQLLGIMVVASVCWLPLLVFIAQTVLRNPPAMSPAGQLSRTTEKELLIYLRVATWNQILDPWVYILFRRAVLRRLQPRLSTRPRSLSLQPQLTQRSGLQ
The experiment is classed as functional, cell-based.

Experiment [8] has as its target Beta-1 adrenergic receptor (Homo sapiens, UniProt P08588). The experiment is classed as functional.
In experiment [9] the target is T2, Type-1 angiotensin II receptor (Homo sapiens, UniProt P30556).
T2 sequence (P30556 whole entry): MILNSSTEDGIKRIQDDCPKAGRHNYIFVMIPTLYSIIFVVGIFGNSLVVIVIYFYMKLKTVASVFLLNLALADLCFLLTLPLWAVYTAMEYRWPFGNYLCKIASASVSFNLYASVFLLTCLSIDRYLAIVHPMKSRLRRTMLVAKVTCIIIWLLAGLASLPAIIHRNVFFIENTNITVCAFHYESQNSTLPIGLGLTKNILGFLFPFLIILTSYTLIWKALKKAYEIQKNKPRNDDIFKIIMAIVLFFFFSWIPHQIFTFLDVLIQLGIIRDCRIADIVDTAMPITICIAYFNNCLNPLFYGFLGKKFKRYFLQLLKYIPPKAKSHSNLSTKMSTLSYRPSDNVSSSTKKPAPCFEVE

In experiment [10] the target is Neuronal acetylcholine receptor subunit alpha-4 (Homo sapiens, UniProt P43681).
The target of experiment [11] is Motilin receptor (Homo sapiens, UniProt O43193).
Chain of Motilin receptor (O43193 whole entry): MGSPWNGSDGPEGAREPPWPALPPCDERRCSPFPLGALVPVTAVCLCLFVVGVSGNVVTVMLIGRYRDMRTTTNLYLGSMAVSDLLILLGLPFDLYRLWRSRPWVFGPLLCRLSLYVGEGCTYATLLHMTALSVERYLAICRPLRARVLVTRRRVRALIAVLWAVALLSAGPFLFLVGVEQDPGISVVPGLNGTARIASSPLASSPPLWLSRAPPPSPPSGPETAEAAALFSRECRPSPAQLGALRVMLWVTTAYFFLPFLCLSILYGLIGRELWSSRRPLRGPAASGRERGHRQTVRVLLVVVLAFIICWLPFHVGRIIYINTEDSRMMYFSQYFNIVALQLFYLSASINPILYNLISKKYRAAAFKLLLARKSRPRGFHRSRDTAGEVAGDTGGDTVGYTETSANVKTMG
Experiment [12] deals with T3, Neuropeptide Y receptor type 1 (Homo sapiens, UniProt P25929).
T3 sequence (P25929 whole entry): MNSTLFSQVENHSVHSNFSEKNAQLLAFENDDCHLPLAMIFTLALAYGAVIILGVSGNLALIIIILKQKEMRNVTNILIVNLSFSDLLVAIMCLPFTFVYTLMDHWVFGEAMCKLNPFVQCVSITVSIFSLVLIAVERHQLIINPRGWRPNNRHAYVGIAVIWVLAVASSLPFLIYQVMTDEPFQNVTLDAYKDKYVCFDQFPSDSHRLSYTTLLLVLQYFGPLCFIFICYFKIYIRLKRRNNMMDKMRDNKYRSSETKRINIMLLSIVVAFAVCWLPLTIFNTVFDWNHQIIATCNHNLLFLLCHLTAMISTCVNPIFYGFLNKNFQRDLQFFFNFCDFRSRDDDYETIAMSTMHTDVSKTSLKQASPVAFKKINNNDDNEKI

Experiment [13] addresses Histamine H3 receptor (Homo sapiens, UniProt Q9Y5N1).

In ChEMBL document CHEMBL5291721, “A preclinical secondary pharmacology resource illuminates target-adverse drug reaction associations of marketed drugs” (Nat Commun, 2023) one finds AC50 data, which are given here for ten compounds.
Also: assay procedure not described here.

Chain of cGMP-inhibited 3',5'-cyclic phosphodiesterase 3A (Q14432 whole entry): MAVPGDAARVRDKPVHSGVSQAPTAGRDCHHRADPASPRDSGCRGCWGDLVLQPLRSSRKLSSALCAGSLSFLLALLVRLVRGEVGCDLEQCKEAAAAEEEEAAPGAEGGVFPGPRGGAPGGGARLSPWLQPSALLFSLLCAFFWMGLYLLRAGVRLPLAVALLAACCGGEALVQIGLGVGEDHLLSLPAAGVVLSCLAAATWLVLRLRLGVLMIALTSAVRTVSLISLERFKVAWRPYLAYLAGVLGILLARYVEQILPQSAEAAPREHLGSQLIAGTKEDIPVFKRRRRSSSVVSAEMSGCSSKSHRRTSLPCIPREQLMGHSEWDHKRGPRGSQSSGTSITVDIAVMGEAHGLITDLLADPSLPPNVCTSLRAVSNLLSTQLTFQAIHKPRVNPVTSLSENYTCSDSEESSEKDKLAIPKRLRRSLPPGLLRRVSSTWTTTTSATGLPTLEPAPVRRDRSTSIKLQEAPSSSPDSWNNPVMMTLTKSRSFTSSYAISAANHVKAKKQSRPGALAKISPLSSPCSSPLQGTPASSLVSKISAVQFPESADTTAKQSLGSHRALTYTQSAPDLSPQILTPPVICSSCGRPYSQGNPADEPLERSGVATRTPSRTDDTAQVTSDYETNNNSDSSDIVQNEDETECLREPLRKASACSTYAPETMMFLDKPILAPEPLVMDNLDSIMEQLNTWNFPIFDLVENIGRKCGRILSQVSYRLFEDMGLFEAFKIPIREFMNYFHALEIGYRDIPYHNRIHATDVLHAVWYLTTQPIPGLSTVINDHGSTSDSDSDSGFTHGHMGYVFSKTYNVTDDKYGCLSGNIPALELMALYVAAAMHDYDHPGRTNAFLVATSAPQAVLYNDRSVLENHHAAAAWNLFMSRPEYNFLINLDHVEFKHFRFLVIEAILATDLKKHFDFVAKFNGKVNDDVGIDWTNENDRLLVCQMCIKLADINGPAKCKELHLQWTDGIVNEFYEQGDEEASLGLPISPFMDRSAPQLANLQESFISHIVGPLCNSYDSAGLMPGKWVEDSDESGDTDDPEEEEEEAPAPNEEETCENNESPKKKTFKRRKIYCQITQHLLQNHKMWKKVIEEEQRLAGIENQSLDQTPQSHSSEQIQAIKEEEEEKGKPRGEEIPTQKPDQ
Chain of Prostaglandin G/H synthase 1 (P23219 whole entry): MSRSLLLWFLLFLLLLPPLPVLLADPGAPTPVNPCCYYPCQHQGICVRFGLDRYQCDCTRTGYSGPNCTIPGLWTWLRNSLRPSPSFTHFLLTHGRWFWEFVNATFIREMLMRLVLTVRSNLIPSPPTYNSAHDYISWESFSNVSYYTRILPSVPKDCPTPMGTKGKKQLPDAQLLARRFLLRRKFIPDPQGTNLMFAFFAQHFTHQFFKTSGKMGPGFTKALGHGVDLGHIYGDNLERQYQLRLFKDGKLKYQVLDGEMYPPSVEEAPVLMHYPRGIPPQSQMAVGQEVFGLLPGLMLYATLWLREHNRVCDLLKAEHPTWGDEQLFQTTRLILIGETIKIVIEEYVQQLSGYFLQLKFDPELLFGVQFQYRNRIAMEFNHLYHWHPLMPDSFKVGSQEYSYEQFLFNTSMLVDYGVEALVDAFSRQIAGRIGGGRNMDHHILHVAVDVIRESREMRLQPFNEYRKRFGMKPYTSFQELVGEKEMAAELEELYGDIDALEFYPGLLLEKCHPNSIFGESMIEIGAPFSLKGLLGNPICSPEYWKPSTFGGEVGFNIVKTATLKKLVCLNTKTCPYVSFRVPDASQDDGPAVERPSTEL
Chain of Sodium-dependent serotonin transporter (P31645 whole entry): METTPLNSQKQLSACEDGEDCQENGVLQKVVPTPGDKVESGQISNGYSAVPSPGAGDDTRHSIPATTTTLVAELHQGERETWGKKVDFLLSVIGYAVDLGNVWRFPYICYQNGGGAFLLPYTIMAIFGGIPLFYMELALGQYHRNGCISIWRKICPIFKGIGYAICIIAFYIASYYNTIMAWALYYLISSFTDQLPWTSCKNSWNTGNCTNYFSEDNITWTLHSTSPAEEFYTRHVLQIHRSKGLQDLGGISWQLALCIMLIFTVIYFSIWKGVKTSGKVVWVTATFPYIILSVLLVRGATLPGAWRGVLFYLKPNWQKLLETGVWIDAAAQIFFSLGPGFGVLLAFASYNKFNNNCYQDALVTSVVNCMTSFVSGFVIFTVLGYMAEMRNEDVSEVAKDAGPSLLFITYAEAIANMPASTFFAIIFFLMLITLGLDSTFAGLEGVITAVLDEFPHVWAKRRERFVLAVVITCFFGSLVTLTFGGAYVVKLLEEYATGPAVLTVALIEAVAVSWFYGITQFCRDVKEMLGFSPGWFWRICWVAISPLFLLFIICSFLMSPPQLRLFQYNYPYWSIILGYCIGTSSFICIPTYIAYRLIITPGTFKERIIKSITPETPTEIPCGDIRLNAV
Chain of Mu-type opioid receptor (P35372 whole entry): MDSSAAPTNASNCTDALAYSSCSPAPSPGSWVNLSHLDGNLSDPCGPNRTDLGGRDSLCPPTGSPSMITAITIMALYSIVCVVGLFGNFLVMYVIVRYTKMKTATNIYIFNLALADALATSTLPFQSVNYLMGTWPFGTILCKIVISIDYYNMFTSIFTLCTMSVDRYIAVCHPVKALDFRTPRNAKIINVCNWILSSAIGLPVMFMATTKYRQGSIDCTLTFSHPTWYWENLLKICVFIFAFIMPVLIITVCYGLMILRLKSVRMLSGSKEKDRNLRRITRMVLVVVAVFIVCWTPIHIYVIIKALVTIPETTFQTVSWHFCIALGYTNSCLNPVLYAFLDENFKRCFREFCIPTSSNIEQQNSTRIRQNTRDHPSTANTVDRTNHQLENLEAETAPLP
Chain of 3',5'-cyclic-AMP phosphodiesterase 4A (P27815 whole entry): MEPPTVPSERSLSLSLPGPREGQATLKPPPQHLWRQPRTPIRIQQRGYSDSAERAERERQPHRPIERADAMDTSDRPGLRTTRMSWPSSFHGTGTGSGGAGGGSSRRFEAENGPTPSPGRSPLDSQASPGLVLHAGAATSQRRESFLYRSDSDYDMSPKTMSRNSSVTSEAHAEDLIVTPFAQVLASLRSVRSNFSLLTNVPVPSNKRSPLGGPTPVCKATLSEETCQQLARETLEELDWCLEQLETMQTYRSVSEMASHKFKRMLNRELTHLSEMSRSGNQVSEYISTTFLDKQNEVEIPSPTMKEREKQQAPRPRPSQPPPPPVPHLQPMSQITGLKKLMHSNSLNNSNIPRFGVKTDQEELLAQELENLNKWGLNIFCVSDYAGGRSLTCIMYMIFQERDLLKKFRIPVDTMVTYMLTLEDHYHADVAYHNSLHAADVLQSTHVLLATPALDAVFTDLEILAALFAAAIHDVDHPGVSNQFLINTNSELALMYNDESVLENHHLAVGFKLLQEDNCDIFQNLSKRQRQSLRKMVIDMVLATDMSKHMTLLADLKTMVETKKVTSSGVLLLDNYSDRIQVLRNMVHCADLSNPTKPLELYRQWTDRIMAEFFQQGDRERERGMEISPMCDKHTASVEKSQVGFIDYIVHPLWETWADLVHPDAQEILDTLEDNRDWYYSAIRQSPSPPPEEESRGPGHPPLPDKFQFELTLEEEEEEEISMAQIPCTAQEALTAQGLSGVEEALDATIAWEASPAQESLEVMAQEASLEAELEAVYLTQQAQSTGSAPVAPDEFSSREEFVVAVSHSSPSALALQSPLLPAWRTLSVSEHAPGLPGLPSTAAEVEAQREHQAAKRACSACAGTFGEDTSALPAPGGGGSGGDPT
Chain of Histamine H3 receptor (Q9Y5N1 whole entry): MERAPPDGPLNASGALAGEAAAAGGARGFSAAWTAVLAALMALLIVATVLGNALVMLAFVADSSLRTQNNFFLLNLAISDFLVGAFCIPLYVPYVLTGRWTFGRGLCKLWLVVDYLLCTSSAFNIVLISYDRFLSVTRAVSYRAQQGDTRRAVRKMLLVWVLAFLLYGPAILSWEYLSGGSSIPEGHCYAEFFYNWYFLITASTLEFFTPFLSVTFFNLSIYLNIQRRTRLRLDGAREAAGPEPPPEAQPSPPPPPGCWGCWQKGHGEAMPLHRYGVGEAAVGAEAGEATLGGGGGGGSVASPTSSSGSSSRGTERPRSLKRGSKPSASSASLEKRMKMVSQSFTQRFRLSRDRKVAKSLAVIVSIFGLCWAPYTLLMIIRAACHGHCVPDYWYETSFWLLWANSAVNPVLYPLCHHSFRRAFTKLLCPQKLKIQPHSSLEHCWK
Chain of Beta-1 adrenergic receptor (P08588 whole entry): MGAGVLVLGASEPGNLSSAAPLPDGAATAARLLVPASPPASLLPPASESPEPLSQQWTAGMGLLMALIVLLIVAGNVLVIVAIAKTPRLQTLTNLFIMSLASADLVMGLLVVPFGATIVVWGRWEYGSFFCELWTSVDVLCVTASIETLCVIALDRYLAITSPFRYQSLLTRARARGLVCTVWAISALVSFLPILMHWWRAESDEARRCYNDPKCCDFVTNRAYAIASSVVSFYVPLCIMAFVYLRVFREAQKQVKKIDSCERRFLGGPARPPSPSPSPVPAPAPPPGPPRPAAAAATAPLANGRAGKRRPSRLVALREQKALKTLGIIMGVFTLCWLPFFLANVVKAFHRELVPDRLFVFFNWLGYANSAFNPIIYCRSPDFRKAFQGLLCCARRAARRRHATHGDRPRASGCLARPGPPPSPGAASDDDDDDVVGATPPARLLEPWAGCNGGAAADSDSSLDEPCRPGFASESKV

As for `CC#CC(=O)N1CCC[C@H]1c1nc(-c2ccc(C(=O)Nc3ccccn3)cc2)c2c(N)nccn12` [ACALABRUTINIB], the AC50 in [1], in experiment [2], in experiment [3], in experiment [4], in experiment [5] and in [6] was more than 30 µM each time. Besides, the AC50 in [7] is more than 30 µM.
Take `NC(=O)C1(N2CCCCC2)CCN(CCCN2c3ccccc3CCc3ccccc32)CC1` [CARPIPRAMINE]: the AC50 in experiment [1] is more than 30 µM; in experiment [2] it was 0.342 µM; in experiment [3], more than 30 µM; in [4], more than 30 µM; in experiment [5], more than 30 µM; in experiment [6] it was 2.73 µM.
Take `CCCCCCCCCCCCCCCC(=O)OC[C@H](COP(=O)([O-])OCC[N+](C)(C)C)OC(=O)CCCCCCCCCCCCCCC` [COLFOSCERIL PALMITATE]: the AC50 in experiment [1], in [2], in experiment [3], in experiment [4], in experiment [5] and in [6] was more than 30 µM throughout. In experiment [7], this compound displayed an AC50 of more than 30 µM.
Turning to `CC(C)Nc1cccnc1N1CCN(C(=O)c2cc3cc(NS(C)(=O)=O)ccc3[nH]2)CC1` [DELAVIRDINE], the AC50 is more than 30 µM in experiment [1]; 13.9 µM in experiment [2]; more than 30 µM in experiment [3]; more than 30 µM in experiment [4]; more than 30 µM in experiment [5]; more than 30 µM in experiment [6]. In [7], the AC50 was 23.2 µM.
`C[C@@H](CN1CC(=O)NC(=O)C1)N1CC(=O)NC(=O)C1` [DEXRAZOXANE]: the AC50 in experiment [1] was more than 30 µM; in [2], more than 30 µM; in experiment [3] it was more than 30 µM; in [4], more than 30 µM; in [5], 2.16 µM; in [6], more than 30 µM. Moreover, the AC50 in experiment [7] was more than 30 µM.
Regarding `C[C@]12CC[C@@H]3c4ccc(OC(=O)N(CCCl)CCCl)cc4CC[C@H]3[C@@H]1CC[C@@H]2OP(=O)(O)O` [ESTRAMUSTINE PHOSPHATE], the concentration at half-maximal activity (AC50) in [1], in experiment [2], in experiment [3], in experiment [4], in experiment [5] and in [6] was more than 30 µM throughout. Also, the AC50 in experiment [7] is more than 30 µM.
For the compound `O=c1[nH]cc(F)c(=O)[nH]1` [FLUOROURACIL], the AC50 in experiment [8], in experiment [9], in [10], in [1], in experiment [11] and in experiment [12] was more than 30 µM throughout. The AC50 in [2], in experiment [3], in [4], in experiment [5], in [7] and in experiment [13] was more than 30 µM in each case.
With `O=C(O)[C@H](O)[C@@H](O)[C@H](O)[C@H](O)CO` [GLUCONIC ACID], the AC50 in experiment [1] was more than 30 µM; in experiment [2], more than 30 µM; in experiment [3] it was more than 30 µM; in experiment [4], 21.4 µM; in experiment [5], more than 30 µM; in experiment [6], more than 30 µM. In [7], this compound returned an AC50 of more than 30 µM.
For the compound `N=C(N)NCC1COc2ccccc2O1` (stereo not drawn) [GUANOXAN], the AC50 in experiment [1], in [2], in [3], in [4], in experiment [5] and in experiment [6] was more than 30 µM in each case. The activity in experiment [7] was half-maximal at 19.9 µM (AC50).
Turning to `CNC1(c2ccccc2Cl)CCCCC1=O` (stereo not drawn) [KETAMINE], the AC50 in [1] is more than 30 µM; in experiment [2], 7.63 µM; in [3], more than 30 µM; in experiment [4], more than 30 µM; in experiment [5], more than 30 µM; in experiment [7], more than 30 µM.
